Values of other authors as cited in US20140106010A1, “Blend of Green and Black Extracts for the Promotion of Health Benefits” (Kemin Industries, Inc., priority 2012, published 2014).

Experiments:
[1] = system: prostate tissue of C57BL/6 mice; details: 2 weeks decaffeinated black tea extract at 50 mg/g diet
ERK1 and ERK2 = details: TRAMP mice, 0.06% EGCG in drinking water, dorsolateral and ventral prostate

Molecule	greater relative absorption into the prostate compared to EGCG [1] [%]	decreased phosphorylation of ERK1 and ERK2 (ERK1 and ERK2)
O=c1c(O)cc([C@H]2Oc3cc(O)cc(O)c3C[C@H]2O)cc2c([C@H]3Oc4cc(O)cc(O)c4C[C@H]3O)cc(O)c(O)c12 [theaflavin]	70	–
epigallocatechin-3-gallate [EGCG]	–	about 50%
